Test results: patent US11123355B2, “Antiviral benzyl-amine phosphodiamide compounds” (Merck Sharp & Dohme Corp., priority 2016, dated 2021)
Where two headings read alike, the source gives them in different places.

Test system: HIV-1 (H9/IIB strain)
Test: Multiple Round HIV-1 Infection Assay (Viking Assay) in MT4-GFP cells
Type: cell-based
Details: inhibition of reproductive ratio R0
Procedure: Assessing antiviral potency in a Multiple Round HIV-1 Infection Assay (Viking Assay) The antiviral activity of the tenofovir prodrugs of the Examples herein was assessed in an assay that measures the rate of replication of HIV in cell culture, termed the Viking assay (VIral KINetics in Green cells) and performed as follows. HIV-1 replication was monitored using MT4-gag-GFP clone D3 (hereafter designated MT4-GFP), which are MT-4 cells modified to harbor a GFP reporter gene, the expression of which is dependent on the HIV-1 expressed proteins tat and rev. Productive infection of an MT4-GFP cell with HIV-1 results in GFP expression approximately 24 h post-infection. MT4-GFP cells were maintained at 37° C./5% CO2/90% relative humidity in RPMI 1640 supplemented with 10/o fetal bovine serum, 100 U/ml penicillin/streptomycin, and 400 μg/ml G418 to maintain the reporter gene. For infections, MT4-GFP cells were placed in the same medium lacking G418 and infected overnight with HIV-1 (H9/IIB strain) virus at an approximate multiplicity of infection of 0.01 in the same incubation conditions. Cells were then washed and re-suspended in either RPMI 1640 supplemented with 10% or 50% normal human serum (NHS) at 1.6×10^5 cells/mL (10% NHS or 50% NHS, respectively). Compound plates were prepared by dispensing compounds dissolved in DMSO into wells of 384 well poly-D-lysine-coated plates (0.2 μl/well) using an ECHO acoustic dispenser. Each compound was tested in a 10-point serial 3-fold dilution (typical final concentrations: 8.4 μM-0.42 nM). Controls included no inhibitor (DMSO only) and a combination of three antiviral agents (efavirenz, indinavir, an in-house integrase strand transfer inhibitor at final concentrations of 4 μM each). Cells were added (50 μL/well) to compound plates and the infected cells were maintained at 37° C./5% CO2/90% relative humidity.
Infected cells were quantified at two time points, ˜48 h and ˜72 h post-infection, by counting the number of green cells in each well using an Acumen eX3 scanner. The increase in the number of green cells over ˜24 h period gives the reproductive ratio, R0, which is typically 5-15 and has been shown experimentally to be in logarithmic phase (data not shown). Inhibition of R0 is calculated for each well, and IC50s determined by non-linear 4-parameter curve fitting.

[1] = MT4-GFP cells infected with HIV-1, 10% normal human serum, read-out: Viking, IC50 (10% NHS)
[2] = MT4-GFP cells infected with HIV-1, 50% normal human serum, read-out: Viking, IC50 (50% NHS)

Row | Molecule | IC50 [1] [µM] | IC50 [2] [µM] | IC50 (Human immunodeficiency virus 1, MT4-GFP cells infected with HIV-1, 10% normal human serum, read-out: Viking, IC50 (10% NHS)) [µM] | IC50 (Human immunodeficiency virus 1, MT4-GFP cells infected with HIV-1, 50% normal human serum, read-out: Viking, IC50 (50% NHS)) [µM]
1 | CCCOC(=O)C(C)(C)NP(=O)(CO[C@H](C)Cn1cnc2c(N)ncnc21)N[C@@H](C)c1ccc(C(F)(F)F)cc1 (stereo partly drawn) [Example 11A, propyl 2-(((R)-((((R)-1-(6-amino-9H-purin-9-yl)propan-2-yl)oxy)methyl)(((S)-1-(4-(trifluoromethyl)phenyl)ethyl)amino)phos-phoryl)amino)-2-methylpropanoate and propyl 2-(((S)-((((R)-1-(6-amino-9H-purin-9-yl)propan-2-yl)oxy)methyl)(((S)-1-(4-(trifluoromethyl)phenyl)ethyl)amino)phosphoryl)amino)-2-methylpropanoate] | 0.0046 | 0.042 |  | 
2 | propyl 2-(((R)-((((R)-1-(6-amino-9H-purin- 9-yl)propan-2-yl)oxy)methyl)(((R)-1-(4- cyanophenyl)-2,2,2- trifluoroethyl)amino)phosphoryl)amino)-2- methylpropanoate and propyl 2-(((S)-((((R)-1-(6-amino-9H-purin- 9-yl)propan-2-yl)oxy)methyl)(((R)-1-(4- cyanophenyl)-2,2,2- trifluoroethyl)amino)phosphoryl)amino)-2- methylpropanoate [Example 23A] | 0.0061 | 0.037 |  | 
3 | CCCOC(=O)C(C)(C)NP(=O)(CO[C@H](C)Cn1cnc2c(N)ncnc21)N(C)[C@H](C)c1ccc(Cl)cc1 (stereo partly drawn) [Example 2A, propyl 2-(((R)-((((R)-1-(6-amino-9H-purin-9-yl)propan-2-yl)oxy)methyl(((R)-1-(4-chlorophenyl)ethyl)(methyl)amino)phosphonyl)amino)-2-methylpropanoate and propyl 2-(((S)-((((R)-1-(6-amino-9H-purin-9-yl)propan-2-yl)oxy)methyl)(((R)-1-(4-chlorophenyl)ethyl)(methyl)amino)phosphoryl)amino)-2-methylpropanoate] |  |  | 0.043 | 0.13
4 | CCCOC(=O)C(C)(C)NP(=O)(CO[C@H](C)Cn1cnc2c(N)ncnc21)N[C@H](c1cccc(OC)c1)C(F)(F)F (stereo partly drawn) [Example 25B, propyl 2-(((R)-((((R)-1-(6-amino-9H-purin-9-yl)propan-2-yl)oxy)methyl)(((R)-2,2,2-trifluoro-1-(3-methoxyphenyl)ethyl)amino)phosphoryl)a-mino)-2-methylpropanoate and propyl 2-(((S)-((((R)-1-(6-amino-9H-purin-9-yl)propan-2-yl)oxy)methyl)(((R)-2,2,2-trifluoro-1-(3-methoxyphenyl)ethyl)amino)phosphoryl)a-mino)-2-methylpropanoate] | 0.015 | 0.097 |  | 
5 | CCCOC(=O)C(C)(C)N[P@@](=O)(CO[C@H](C)Cn1cnc2c(N)ncnc21)N[C@@H](c1cccc(OC)c1)C(F)(F)F [Example 28B, propyl 2-(((R)-((((R)-1-(6-amino-9H-purin-9-yl)propan-2-yl)oxy)methyl)(((S)-2,2,2-trifluoro-1-(3-methoxyphenyl)ethyl)amino)phosphoryl)a-mino)-2-methylpropanoate and propyl 2-(((S)-((((R)-1-(6-amino-9H-purin-9-yl)propan-2-yl)oxy)methyl)(((S)-2,2,2-trifluoro-1-(3-methoxyphenyl)ethyl)amino)phosphoryl)a-mino)-2-methylpropanoate] | 0.017 | 0.12 |  | 
6 | CCCOC(=O)C(C)(C)NP(=O)(CO[C@H](C)Cn1cnc2c(N)ncnc21)N(C)Cc1ccc(C(C)C)cc1 (stereo partly drawn) [Example 32B, propyl 2-(((R)-((((R)-1-(6-amino-9H-purin-9-yl)propan-2-yl)oxy)methyl)((4-isopropylbenzyl)(methyl)amino)phos-phoryl)amino)-2-methylpropanoate and propyl 2-(((S)-((((R)-1-(6-amino-9H-purin-9-yl)propan-2-yl)oxy)methyl)((4-isopropylbenzyl)(methyl)amino)phos-phoryl)amino)-2-methylpropanoate] | 0.01 | 0.041 |  | 
